Among the test systems are SF-295; U-251; ACHN; A549; MOLT-4; RXF 393; SNB-19; CCRF-CEM; SK-OV-3; SK-MEL-28; UACC-62; NCI/ADR-RES; KM12; OVCAR-5; Malme-3M; EKVX; OVCAR-8; HCT-15; RPMI-8226; HOP-62.
Holding throughout (experiment): NCI anticancer screen, dose series, 48 h

SMILES strings stand for the structures.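 Assay format: 96-well plates, 48-hour exposure. GI50 = concentration required for 50% inhibition of growth.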 Active and inactive are the calls of the source. Rule as the data show it: active = GI50 up to about 1.1 µM and inactive = higher. A value given as a limit tells only on which side of the number the result lay.

Regarding `CCOC(=O)c1csc(NC(=O)C(C)N2CCOCC2)n1` (stereo not given), the GI50 in the assay with SF-295, with U-251, in the assay with ACHN, in the assay with A549, in the assay with MOLT-4 and in the assay on RXF 393 was > 100 µM (inactive) each time. The GI50 in the assay on SNB-19, in the assay with CCRF-CEM, with SK-OV-3, in the assay on SK-MEL-28, with UACC-62 and in the assay with NCI/ADR-RES was > 100 µM (inactive) in each case. For the same molecule, the GI50 was > 100 µM (inactive) in the assay with KM12; > 100 µM (inactive) in the assay with OVCAR-5; > 100 µM (inactive) in the assay with Malme-3M; > 100 µM (inactive) in the assay on EKVX; > 100 µM (inactive) in the assay with OVCAR-8; > 100 µM in the assay on HCT-15. Further, the GI50 with RPMI-8226 and in the assay with HOP-62 was > 100 µM (inactive) each time.

Consider `CC(=O)N1C(=O)/C(=C\C(=O)c2ccc(Cl)cc2)c2ccccc21`, for which the GI50 with SF-295 is 21.1 µM (inactive); in the assay with U-251, 15.5 µM (inactive); in the assay with ACHN, 9.31 µM (inactive); with A549, 13.5 µM (inactive); in the assay with MOLT-4, 3.43 µM (inactive); in the assay with RXF 393, 15.3 µM (inactive). Besides, the GI50 was 24.8 µM (inactive) in the assay on SNB-19; 2.61 µM (inactive) in the assay on CCRF-CEM; 22.8 µM (inactive) with SK-OV-3; 14 µM (inactive) in the assay on SK-MEL-28; 13.4 µM (inactive) in the assay with UACC-62; 20.6 µM (inactive) in the assay with NCI/ADR-RES. Also, the GI50 in the assay with KM12 is 16.9 µM (inactive); in the assay on OVCAR-5, 20 µM (inactive); in the assay with Malme-3M, 16.3 µM (inactive); with EKVX it was 17.6 µM (inactive); in the assay on OVCAR-8, 14.1 µM (inactive); with HCT-15, 6.73 µM. For the same molecule, the GI50 in the assay on RPMI-8226 is 24.4 µM (inactive); in the assay on HOP-62, 20.1 µM (inactive).

Turning to `CC(=O)O[C@H]1CC[C@@]2(C)C(=CC[C@H]3[C@@H]4C[C@H](N5CCN(C)CC5)[C@H](OC(C)=O)[C@@]4(C)CC[C@@H]32)C1`, the GI50 with SF-295 was 22.1 µM (inactive); with U-251, 19.7 µM (inactive); in the assay with ACHN it was 41.9 µM (inactive); with A549, 18.5 µM (inactive); with MOLT-4, 4.39 µM (inactive); in the assay with RXF 393, 19.1 µM (inactive). Moreover, the GI50 was 21.9 µM (inactive) in the assay with SNB-19; 3.98 µM (inactive) in the assay with CCRF-CEM; > 47.2 µM (inactive) in the assay with SK-OV-3; 12.5 µM (inactive) with SK-MEL-28; 11.7 µM (inactive) with UACC-62; 19.6 µM (inactive) in the assay with NCI/ADR-RES. Also, the GI50 with KM12 is 16.7 µM (inactive); in the assay with OVCAR-5, 26.1 µM (inactive); in the assay with Malme-3M, 11.7 µM (inactive); with EKVX, 20.7 µM (inactive); in the assay with OVCAR-8, 15.6 µM (inactive); with HCT-15, 13 µM. The GI50 in the assay with RPMI-8226 is 4.39 µM (inactive); in the assay on HOP-62, 25.1 µM (inactive).

For `CN(C)CCCNC(=O)c1c(-c2cccnc2)cnc2ccccc12`, the GI50 in the assay on SF-295, in the assay with U-251, in the assay on ACHN, in the assay on A549, in the assay on MOLT-4 and in the assay with RXF 393 was > 100 µM (inactive) in each case. Further, the GI50 with SNB-19, with CCRF-CEM, in the assay with SK-OV-3, in the assay on SK-MEL-28, in the assay on UACC-62 and in the assay with NCI/ADR-RES was > 100 µM (inactive) in each case. Moreover, the GI50 in the assay on KM12 was > 10 µM (inactive); in the assay with OVCAR-5 it was > 100 µM (inactive); in the assay on Malme-3M, > 100 µM (inactive); with EKVX it was > 100 µM (inactive); in the assay with OVCAR-8 it was > 100 µM (inactive); in the assay with HCT-15, > 100 µM. Moreover, the GI50 in the assay with RPMI-8226 and with HOP-62 was > 100 µM (inactive) throughout.

Values taken from ChEMBL document CHEMBL1201862, “PubChem BioAssay data set” (2004).
